Data as given in patent publication US4943562A, “Tetra- and pentapeptides containing the lysyl-arginyl-aspartyl sequence and their applications as medicines, particularly anti-thrombotic medicines” (Institut des Vaisseaux et du Sang, priority 1987, dated 1990).
Peptide text beside a SMILES is read from it.

Columns and labels:
intravascular thrombus [1] = experiment: experimental thrombosis: intravascular thrombus induced by a specific lesion of the arterial wall, guineapig; type: in vivo; details: direct intravenous injection
Procedure: Experimental work on thrombosis carried out on two different animal species (rat and guineapig) have shown that the peptides according to the invention, in particular the peptides of the general formula […] (II), viz. particularly peptide […] (peptide 1) and peptide […] […] The type of thrombus which is thus induced takes into account the participation of the blood platelets against which the peptide exerts its activity but also the reactivity of the injured vascular wall.

intravascular thrombus [2] = experiment: experimental thrombosis: intravascular thrombus induced by a specific lesion of the arterial wall, rat; type: in vivo; details: direct intravenous injection
Procedure: Experimental work on thrombosis carried out on two different animal species (rat and guineapig) have shown that the peptides according to the invention, in particular the peptides of the general formula […] (II), viz. particularly peptide […] (peptide 1) and peptide […] The type of thrombus which is thus induced takes into account the participation of the blood platelets against which the peptide exerts its activity but also the reactivity of the injured vascular wall. […] In the same experimental thrombosis system, when a peptide according to the invention is used, particularly a peptide of the formula […]

[3] = water-solubility of the peptide; type: physicochemical
Excerpt: This peptide is hydrophilic and its water-solubility is very good.

SMILES	anti-thrombotic activity (intravascular thrombus [1])	anti-thrombotic activity (intravascular thrombus [2])	water-solubility [3]
N=C(N)NCCC[C@H](NC(=O)[C@H](CC(=O)O)NC(=O)[C@H](CCCNC(=N)N)NC(=O)[C@@H](N)CCCCN)C(=O)O [peptide 6, Lys-Arg-Asp-Arg] (H-KRDR-OH)	exert an anti-thrombotic activity	exert an anti-thrombotic activity	
N=C(N)NCCC[C@H](NC(=O)[C@@H](N)CCCCN)C(=O)N[C@@H](CC(=O)O)C(=O)N[C@@H](CO)C(=O)O [peptide 1, Lys-Arg-Asp-Ser] (H-KRDS-OH)			very good
